{
  "source": "the kinase profiling compilation of Christmann-Franck et al. (2016)",
  "assay_in_all_cases": "KINOMEscan competition binding",
  "details_in_all_cases": "compound 10.0 µM",
  "key": {"RPS6KA1 KD2 (human)": {"target": "RPS6KA1 KD2 (human) (UniProt Q15418)"}, "TGFBR1 (human)": {"target": "TGFBR1 (human) (UniProt P36897)", "sequence (P36897 whole entry, looked up)": "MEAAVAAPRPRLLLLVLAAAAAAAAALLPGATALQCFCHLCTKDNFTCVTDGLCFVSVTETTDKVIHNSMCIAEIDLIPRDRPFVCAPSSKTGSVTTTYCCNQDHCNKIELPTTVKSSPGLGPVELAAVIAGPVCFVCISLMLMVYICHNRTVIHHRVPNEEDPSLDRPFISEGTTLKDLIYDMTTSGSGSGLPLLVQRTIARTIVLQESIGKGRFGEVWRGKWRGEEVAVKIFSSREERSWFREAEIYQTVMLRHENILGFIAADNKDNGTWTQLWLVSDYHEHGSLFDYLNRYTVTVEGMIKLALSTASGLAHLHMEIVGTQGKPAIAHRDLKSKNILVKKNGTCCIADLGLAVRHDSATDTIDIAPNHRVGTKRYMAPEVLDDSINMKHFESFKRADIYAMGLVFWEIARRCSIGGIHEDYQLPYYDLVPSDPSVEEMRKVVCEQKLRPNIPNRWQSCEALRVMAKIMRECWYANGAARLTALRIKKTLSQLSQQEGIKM"}, "MAPK14 (human)": {"target": "MAPK14 (human) (UniProt Q16539)", "sequence (Q16539 whole entry, looked up)": "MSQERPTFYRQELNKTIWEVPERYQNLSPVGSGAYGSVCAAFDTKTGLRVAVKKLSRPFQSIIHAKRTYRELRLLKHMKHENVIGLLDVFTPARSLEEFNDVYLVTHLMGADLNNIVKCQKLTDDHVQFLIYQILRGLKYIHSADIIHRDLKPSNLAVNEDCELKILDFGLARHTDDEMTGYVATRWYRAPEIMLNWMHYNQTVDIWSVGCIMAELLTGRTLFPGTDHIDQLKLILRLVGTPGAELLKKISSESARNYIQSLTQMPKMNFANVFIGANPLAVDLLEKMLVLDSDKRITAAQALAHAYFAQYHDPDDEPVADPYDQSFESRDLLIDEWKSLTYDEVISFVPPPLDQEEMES"}, "PRKX (human)": {"target": "PRKX (human) (UniProt P51817)"}, "YES1 (human)": {"target": "YES1 (human) (UniProt P07947)"}, "[1]": {"tested_on": "FLT3 (human), P36888 [K663Q]"}, "SRPK2 (human)": {"target": "SRPK2 (human) (UniProt P78362)"}, "CAMK2G (human)": {"target": "CAMK2G (human) (UniProt Q13555)"}, "NEK1 (human)": {"target": "NEK1 (human) (UniProt Q96PY6)", "sequence (Q96PY6 whole entry, looked up)": "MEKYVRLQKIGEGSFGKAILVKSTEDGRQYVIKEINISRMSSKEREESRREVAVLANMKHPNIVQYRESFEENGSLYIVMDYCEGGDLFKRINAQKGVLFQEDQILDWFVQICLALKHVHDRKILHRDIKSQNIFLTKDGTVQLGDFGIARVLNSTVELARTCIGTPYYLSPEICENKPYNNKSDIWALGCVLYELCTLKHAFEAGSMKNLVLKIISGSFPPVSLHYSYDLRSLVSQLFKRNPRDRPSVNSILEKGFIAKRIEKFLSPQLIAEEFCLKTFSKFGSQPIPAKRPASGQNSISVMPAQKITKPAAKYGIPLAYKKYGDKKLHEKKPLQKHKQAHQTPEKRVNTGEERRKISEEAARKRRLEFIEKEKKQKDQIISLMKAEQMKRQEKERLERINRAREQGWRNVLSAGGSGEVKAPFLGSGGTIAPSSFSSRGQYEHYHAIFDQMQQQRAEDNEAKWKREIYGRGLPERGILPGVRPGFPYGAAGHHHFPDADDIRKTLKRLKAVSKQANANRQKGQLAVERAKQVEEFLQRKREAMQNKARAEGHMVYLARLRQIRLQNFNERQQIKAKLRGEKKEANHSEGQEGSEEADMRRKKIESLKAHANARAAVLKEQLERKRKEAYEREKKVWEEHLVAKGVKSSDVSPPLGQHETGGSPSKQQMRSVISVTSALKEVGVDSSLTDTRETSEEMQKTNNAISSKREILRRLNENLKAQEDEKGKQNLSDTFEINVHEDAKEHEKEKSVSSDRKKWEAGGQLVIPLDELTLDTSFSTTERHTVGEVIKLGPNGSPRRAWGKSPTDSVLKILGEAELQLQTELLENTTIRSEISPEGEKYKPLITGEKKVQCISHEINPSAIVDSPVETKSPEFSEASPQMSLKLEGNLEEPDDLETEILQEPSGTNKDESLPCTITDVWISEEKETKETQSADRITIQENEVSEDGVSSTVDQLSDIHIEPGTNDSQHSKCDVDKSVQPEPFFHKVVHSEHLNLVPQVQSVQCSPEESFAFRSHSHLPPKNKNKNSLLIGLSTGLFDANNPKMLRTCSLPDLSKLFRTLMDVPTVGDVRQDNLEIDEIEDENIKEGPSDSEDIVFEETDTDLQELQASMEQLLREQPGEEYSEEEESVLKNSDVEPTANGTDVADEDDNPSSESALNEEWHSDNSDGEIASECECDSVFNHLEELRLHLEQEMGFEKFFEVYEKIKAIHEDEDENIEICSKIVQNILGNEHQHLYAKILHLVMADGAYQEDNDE"}, "CDK7 (human)": {"target": "CDK7 (human) (UniProt P50613)", "sequence (P50613 whole entry, looked up)": "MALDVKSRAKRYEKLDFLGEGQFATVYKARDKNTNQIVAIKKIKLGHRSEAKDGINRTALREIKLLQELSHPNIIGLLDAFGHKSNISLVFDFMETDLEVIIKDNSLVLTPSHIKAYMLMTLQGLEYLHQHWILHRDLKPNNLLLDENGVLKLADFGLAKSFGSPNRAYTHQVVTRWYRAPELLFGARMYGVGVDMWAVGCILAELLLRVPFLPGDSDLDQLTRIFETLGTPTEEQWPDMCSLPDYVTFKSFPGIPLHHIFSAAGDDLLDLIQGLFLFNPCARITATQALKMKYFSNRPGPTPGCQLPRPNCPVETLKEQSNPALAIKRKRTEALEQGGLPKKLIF"}, "EPHB1 (human)": {"target": "EPHB1 (human) (UniProt P54762)"}, "CAMKK2 (human)": {"target": "CAMKK2 (human) (UniProt Q96RR4)"}, "EPHB6 (human)": {"target": "EPHB6 (human) (UniProt O15197)"}, "ACVR2B (human)": {"target": "ACVR2B (human) (UniProt Q13705)"}, "PIK3CA (human)": {"target": "PIK3CA (human) (UniProt P42336)"}, "[2]": {"tested_on": "ABL1 (human), P00519 [H396P]"}, "STK4 (human)": {"target": "STK4 (human) (UniProt Q13043)"}, "MAP3K10 (human)": {"target": "MAP3K10 (human) (UniProt Q02779)"}, "MAP4K3 (human)": {"target": "MAP4K3 (human) (UniProt Q8IVH8)"}, "[3]": {"target": "JAK3 JH1 catalytic (human) (UniProt P52333)"}, "NTRK1 (human)": {"target": "NTRK1 (human) (UniProt P04629)"}, "RIOK2 (human)": {"target": "RIOK2 (human) (UniProt Q9BVS4)"}, "AXL (human)": {"target": "AXL (human) (UniProt P30530)"}, "PI4KB (human)": {"target": "PI4KB (human) (UniProt Q9UBF8)"}, "AKT1 (human)": {"target": "AKT1 (human) (UniProt P31749)"}, "MAP2K6 (human)": {"target": "MAP2K6 (human) (UniProt P52564)"}, "DAPK1 (human)": {"target": "DAPK1 (human) (UniProt P53355)"}, "RPS6KA1 KD1 (human)": {"target": "RPS6KA1 KD1 (human) (UniProt Q15418)"}, "CDK16 (human)": {"target": "CDK16 (human) (UniProt Q00536)", "sequence (Q00536 whole entry, looked up)": "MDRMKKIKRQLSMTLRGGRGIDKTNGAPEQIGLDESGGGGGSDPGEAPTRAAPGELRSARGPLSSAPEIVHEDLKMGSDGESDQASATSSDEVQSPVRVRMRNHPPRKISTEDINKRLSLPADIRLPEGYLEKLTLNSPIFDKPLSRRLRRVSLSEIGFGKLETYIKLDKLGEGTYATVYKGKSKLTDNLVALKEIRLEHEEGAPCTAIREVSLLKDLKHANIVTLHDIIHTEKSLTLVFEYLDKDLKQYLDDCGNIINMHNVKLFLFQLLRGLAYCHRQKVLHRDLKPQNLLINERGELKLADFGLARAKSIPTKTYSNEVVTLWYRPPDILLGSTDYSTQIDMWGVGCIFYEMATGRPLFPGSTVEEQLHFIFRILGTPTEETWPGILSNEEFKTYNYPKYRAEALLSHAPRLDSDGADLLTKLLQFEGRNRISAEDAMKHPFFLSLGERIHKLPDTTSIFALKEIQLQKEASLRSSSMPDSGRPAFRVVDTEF"}, "FGFR2 (human)": {"target": "FGFR2 (human) (UniProt P21802)"}, "PRKACB (human)": {"target": "PRKACB (human) (UniProt P22694)"}, "SLK (human)": {"target": "SLK (human) (UniProt Q9H2G2)"}, "[4]": {"tested_on": "PIK3CA (human), P42336 [C420R]"}, "PHKG1 (human)": {"target": "PHKG1 (human) (UniProt Q16816)", "sequence (Q16816 whole entry, looked up)": "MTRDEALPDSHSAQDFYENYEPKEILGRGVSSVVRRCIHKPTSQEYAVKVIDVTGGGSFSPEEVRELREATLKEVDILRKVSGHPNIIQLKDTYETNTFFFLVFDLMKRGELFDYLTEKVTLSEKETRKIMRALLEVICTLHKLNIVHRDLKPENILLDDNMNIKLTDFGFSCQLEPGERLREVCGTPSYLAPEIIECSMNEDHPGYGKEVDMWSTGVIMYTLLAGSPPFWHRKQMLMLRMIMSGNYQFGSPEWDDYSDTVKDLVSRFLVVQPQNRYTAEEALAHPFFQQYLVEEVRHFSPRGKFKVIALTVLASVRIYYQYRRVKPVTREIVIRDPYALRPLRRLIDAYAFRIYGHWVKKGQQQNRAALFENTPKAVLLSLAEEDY"}, "[5]": {"tested_on": "ABL1 (human), P00519 [M351T]"}, "DMPK (human)": {"target": "DMPK (human) (UniProt Q09013)"}, "TNK2 (human)": {"target": "TNK2 (human) (UniProt Q07912)", "sequence (Q07912 whole entry, looked up)": "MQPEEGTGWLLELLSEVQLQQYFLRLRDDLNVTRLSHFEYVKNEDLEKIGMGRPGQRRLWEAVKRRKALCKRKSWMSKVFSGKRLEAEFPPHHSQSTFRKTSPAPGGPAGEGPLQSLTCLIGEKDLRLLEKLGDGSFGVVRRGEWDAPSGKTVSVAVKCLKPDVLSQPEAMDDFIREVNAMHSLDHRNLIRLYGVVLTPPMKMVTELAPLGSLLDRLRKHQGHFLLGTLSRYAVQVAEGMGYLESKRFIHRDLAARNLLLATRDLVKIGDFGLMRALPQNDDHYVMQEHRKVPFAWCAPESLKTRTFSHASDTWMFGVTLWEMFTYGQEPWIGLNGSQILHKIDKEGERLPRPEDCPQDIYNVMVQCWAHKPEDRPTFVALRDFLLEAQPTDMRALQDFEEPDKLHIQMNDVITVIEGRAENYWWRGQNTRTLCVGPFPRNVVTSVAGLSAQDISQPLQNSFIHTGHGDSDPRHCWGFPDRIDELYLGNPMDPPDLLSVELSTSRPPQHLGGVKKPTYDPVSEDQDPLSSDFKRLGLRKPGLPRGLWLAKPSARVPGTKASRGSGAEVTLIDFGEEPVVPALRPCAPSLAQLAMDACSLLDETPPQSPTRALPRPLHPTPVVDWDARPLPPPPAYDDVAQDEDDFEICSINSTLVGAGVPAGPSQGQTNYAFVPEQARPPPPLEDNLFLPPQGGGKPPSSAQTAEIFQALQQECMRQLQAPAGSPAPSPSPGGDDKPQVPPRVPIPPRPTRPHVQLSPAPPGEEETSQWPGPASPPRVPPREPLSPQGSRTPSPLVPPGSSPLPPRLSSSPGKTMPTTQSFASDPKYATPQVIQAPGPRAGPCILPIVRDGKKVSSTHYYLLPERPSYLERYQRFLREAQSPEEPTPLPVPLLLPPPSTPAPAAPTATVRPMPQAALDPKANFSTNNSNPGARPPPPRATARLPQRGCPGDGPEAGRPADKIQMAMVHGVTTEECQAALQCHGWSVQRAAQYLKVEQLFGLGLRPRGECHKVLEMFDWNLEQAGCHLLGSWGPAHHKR"}, "PRKAA2 (human)": {"target": "PRKAA2 (human) (UniProt P54646)"}, "GSK3A (human)": {"target": "GSK3A (human) (UniProt P49840)"}, "MAP3K7 (human)": {"target": "MAP3K7 (human) (UniProt O43318)"}, "WEE1 (human)": {"target": "WEE1 (human) (UniProt P30291)", "sequence (P30291 whole entry, looked up)": "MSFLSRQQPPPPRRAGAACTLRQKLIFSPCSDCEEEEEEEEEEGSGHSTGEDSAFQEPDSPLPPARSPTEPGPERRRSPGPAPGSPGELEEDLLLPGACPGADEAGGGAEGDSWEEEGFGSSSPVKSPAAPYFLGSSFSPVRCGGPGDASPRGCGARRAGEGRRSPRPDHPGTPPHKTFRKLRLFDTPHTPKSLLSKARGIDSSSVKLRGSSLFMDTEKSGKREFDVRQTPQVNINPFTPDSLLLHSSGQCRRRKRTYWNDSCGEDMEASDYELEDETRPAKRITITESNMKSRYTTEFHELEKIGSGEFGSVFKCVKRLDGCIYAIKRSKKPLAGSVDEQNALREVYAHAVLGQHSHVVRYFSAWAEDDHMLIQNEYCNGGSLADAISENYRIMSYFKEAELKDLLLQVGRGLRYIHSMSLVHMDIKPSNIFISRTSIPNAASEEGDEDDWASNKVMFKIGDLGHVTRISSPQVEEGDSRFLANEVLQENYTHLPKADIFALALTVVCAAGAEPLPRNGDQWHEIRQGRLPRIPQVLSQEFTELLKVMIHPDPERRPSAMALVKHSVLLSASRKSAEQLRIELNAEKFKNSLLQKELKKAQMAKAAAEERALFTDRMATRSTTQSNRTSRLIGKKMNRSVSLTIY"}},
  "data": [
    {"smiles": "Cc1cnc(-c2cnc(NCCNc3ccc(C#N)cn3)nc2-c2ccc(Cl)cc2Cl)[nH]1", "values": [
      {"measurement": "kinase still bound, per cent of control", "setting": "RPS6KA1 KD2 (human)", "value": 91, "unit": "%"},
      {"measurement": "kinase still bound, per cent of control", "setting": "TGFBR1 (human)", "value": 100, "unit": "%"},
      {"measurement": "kinase still bound, per cent of control", "setting": "MAPK14 (human)", "value": 98, "unit": "%"},
      {"measurement": "kinase still bound, per cent of control", "setting": "PRKX (human)", "value": 100, "unit": "%"},
      {"measurement": "kinase still bound, per cent of control", "setting": "YES1 (human)", "value": 100, "unit": "%"},
      {"measurement": "kinase still bound, per cent of control", "setting": "[1]", "value": 78, "unit": "%"},
      {"measurement": "kinase still bound, per cent of control", "setting": "SRPK2 (human)", "value": 100, "unit": "%"},
      {"measurement": "kinase still bound, per cent of control", "setting": "CAMK2G (human)", "value": 100, "unit": "%"},
      {"measurement": "kinase still bound, per cent of control", "setting": "NEK1 (human)", "value": 79, "unit": "%"},
      {"measurement": "kinase still bound, per cent of control", "setting": "CDK7 (human)", "value": 64, "unit": "%"},
      {"measurement": "kinase still bound, per cent of control", "setting": "EPHB1 (human)", "value": 96, "unit": "%"},
      {"measurement": "kinase still bound, per cent of control", "setting": "CAMKK2 (human)", "value": 100, "unit": "%"},
      {"measurement": "kinase still bound, per cent of control", "setting": "EPHB6 (human)", "value": 100, "unit": "%"},
      {"measurement": "kinase still bound, per cent of control", "setting": "ACVR2B (human)", "value": 100, "unit": "%"},
      {"measurement": "kinase still bound, per cent of control", "setting": "PIK3CA (human)", "value": 100, "unit": "%"},
      {"measurement": "kinase still bound, per cent of control", "setting": "[2]", "value": 100, "unit": "%"},
      {"measurement": "kinase still bound, per cent of control", "setting": "STK4 (human)", "value": 100, "unit": "%"},
      {"measurement": "kinase still bound, per cent of control", "setting": "MAP3K10 (human)", "value": 76, "unit": "%"},
      {"measurement": "kinase still bound, per cent of control", "setting": "MAP4K3 (human)", "value": 96, "unit": "%"},
      {"measurement": "kinase still bound, per cent of control", "setting": "[3]", "value": 100, "unit": "%"},
      {"measurement": "kinase still bound, per cent of control", "setting": "NTRK1 (human)", "value": 100, "unit": "%"},
      {"measurement": "kinase still bound, per cent of control", "setting": "RIOK2 (human)", "value": 22, "unit": "%"},
      {"measurement": "kinase still bound, per cent of control", "setting": "AXL (human)", "value": 100, "unit": "%"},
      {"measurement": "kinase still bound, per cent of control", "setting": "PI4KB (human)", "value": 93, "unit": "%"},
      {"measurement": "kinase still bound, per cent of control", "setting": "AKT1 (human)", "value": 100, "unit": "%"},
      {"measurement": "kinase still bound, per cent of control", "setting": "MAP2K6 (human)", "value": 73, "unit": "%"},
      {"measurement": "kinase still bound, per cent of control", "setting": "DAPK1 (human)", "value": 84, "unit": "%"},
      {"measurement": "kinase still bound, per cent of control", "setting": "RPS6KA1 KD1 (human)", "value": 100, "unit": "%"},
      {"measurement": "kinase still bound, per cent of control", "setting": "CDK16 (human)", "value": 39, "unit": "%"},
      {"measurement": "kinase still bound, per cent of control", "setting": "FGFR2 (human)", "value": 98, "unit": "%"},
      {"measurement": "kinase still bound, per cent of control", "setting": "PRKACB (human)", "value": 100, "unit": "%"},
      {"measurement": "kinase still bound, per cent of control", "setting": "SLK (human)", "value": 63, "unit": "%"},
      {"measurement": "kinase still bound, per cent of control", "setting": "[4]", "value": 100, "unit": "%"},
      {"measurement": "kinase still bound, per cent of control", "setting": "PHKG1 (human)", "value": 100, "unit": "%"},
      {"measurement": "kinase still bound, per cent of control", "setting": "[5]", "value": 99, "unit": "%"},
      {"measurement": "kinase still bound, per cent of control", "setting": "DMPK (human)", "value": 92, "unit": "%"},
      {"measurement": "kinase still bound, per cent of control", "setting": "TNK2 (human)", "value": 100, "unit": "%"},
      {"measurement": "kinase still bound, per cent of control", "setting": "PRKAA2 (human)", "value": 56, "unit": "%"},
      {"measurement": "kinase still bound, per cent of control", "setting": "GSK3A (human)", "value": 0, "unit": "%"},
      {"measurement": "kinase still bound, per cent of control", "setting": "MAP3K7 (human)", "value": 51, "unit": "%"},
      {"measurement": "kinase still bound, per cent of control", "setting": "WEE1 (human)", "value": 98, "unit": "%"}
    ]}
  ]
}
